Target: T1, human LPA1 (Homo sapiens, UniProt Q92633)
T1 construct: the full-length cDNA for human LPA1 was obtained by PCR of the reverse transcription reaction; expressed in transfected cells
Experiment: LPA1 calcium flux assay (HLPA1 Ca Flux)
Assay type: cell-based
Conditions: Human LPA1 expressing CHO cells, stimulated with 10 nM LPA
Experimental: A 1.1 kb cDNA encoding the human LPA1 receptor was cloned from human lung. Human lung RNA (Clontech Laboratories, Inc. USA) was reverse transcribed using the RETROscript kit (Ambion, Inc.) and the full-length cDNA for human LPA1 was obtained by PCR of the reverse transcription reaction. The nucleotide sequence of the cloned human LPA1 was determined by sequencing and confirmed to be identical to the published human LPA1 sequence (An et al. Biochem. Biophys. Res. Commun. 231:619 (1997). The cDNA was cloned into the pcDNAS/FRT expression plasmid and transfected in CHO cells using lipofectamine 2000 (Invitrogen Corp., USA). Clones stably expressing human LPA1 were selected using hygromycin and identified as cells that show Ca-influx in response to LPA.
Human LPA1 or LPA3 expressing CHO cells are seeded at 20,000-45,000 cells per well in a 96-well poly-D-lysine coated plate one or two days before the assay. Prior to the assay, the cells are washed once with PBS and then cultured in serum-free media overnight. On the day of the assay, a calcium indicator dye (Calcium 4, Molecular Devices) in assay buffer (HBSS with Ca^2+ and Mg^2+ and containing 20 mM Hepes and 0.3% fatty-acid free human serum albumin) is added to each well and incubation continued for 1 hour at 37° C. 10 μl of test compounds in 2.5% DMSO are added to the cells and incubation continued at room temperature for 30 minutes. Cells are the stimulated by the addition of 10 nM LPA and intracellular Ca^2+ measured using the Flexstation 3 (Molecular Devices). IC50s are determined using Graphpad prism analysis of drug titration curves.

T1 sequence (Q92633 whole entry): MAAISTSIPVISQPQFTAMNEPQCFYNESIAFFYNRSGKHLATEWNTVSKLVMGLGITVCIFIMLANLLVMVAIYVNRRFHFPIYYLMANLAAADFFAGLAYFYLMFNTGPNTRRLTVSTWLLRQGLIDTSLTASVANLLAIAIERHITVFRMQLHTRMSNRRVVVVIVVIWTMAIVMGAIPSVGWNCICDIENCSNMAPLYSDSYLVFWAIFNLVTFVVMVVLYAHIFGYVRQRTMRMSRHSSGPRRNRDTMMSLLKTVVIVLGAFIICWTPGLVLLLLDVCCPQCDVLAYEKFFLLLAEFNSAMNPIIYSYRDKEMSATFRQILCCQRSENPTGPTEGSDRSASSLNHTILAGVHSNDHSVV

Row | SMILES | IC50 [nM]
1 | Cc1noc(-c2ccc(Cc3cccc(C(=O)O)c3)cc2)c1NC(=O)OCc1ccccc1Br [Compound 1-6, 3-{4-[4-(2-Bromo-benzyloxycarbonylamino)-3-methyl-isoxazol-5-yl]-benzyl}-benzoic acid] | 1000 to 50000
2 | Cc1noc(-c2ccc(-c3cccc(C(=O)O)c3)cc2)c1NC(=O)O[C@H](C)c1ccccn1 [Compound 1-11] | 1000 to 50000
3 | Cc1cccc(COC(=O)Nc2c(C)noc2-c2ccc(-c3cccc(C(=O)O)c3)cc2)n1 [Compound 1-13, 4′-[3-Methyl-4-(6-methyl-pyridin-2-ylmethoxycarbonylamino)-isoxazol-5-yl]-biphenyl-3-carboxylic acid] | 1000 to 50000
4 | Cc1noc(-c2ccc(Cc3cc(C(=O)O)ccc3Cl)cc2)c1NC(=O)OC(C)c1ccccc1Cl (centres unmarked) [Compound 1-14, 4-Chloro-3-(4-{4-[1-(2-chloro-phenyl)-ethoxycarbonylamino]-3-methyl-isoxazol-5-yl}-benzyl)-benzoic acid] | 300 to 1000
5 | Cc1noc(-c2ccc(-c3cccc(C(=O)O)c3)cc2)c1NC(=O)OC1CCc2ccccc21 (centres unmarked) [Compound 1-16, 4′-[4-(Indan-1-yloxycarbonylamino)-3-methyl-isoxazol-5-yl]-biphenyl-3-carboxylic acid] | > 50000
6 | Cc1noc(-c2ccc(CSc3cccc(CC(=O)O)c3)cc2)c1NC(=O)OC(C)c1ccccc1Cl (centres unmarked) [Compound 1-18, [3-(4-{4-[1-(2-Chloro-phenyl)-ethoxycarbonylamino]-3-methyl-isoxazol-5-yl}-benzylsulfanyl)-phenyl]-acetic acid] | < 300
7 | Cc1noc(-c2ccc(Cc3ccccc3CC(=O)O)cc2)c1NC(=O)OC(C)c1ccccc1Cl (centres unmarked) [Compound 1-22, [2-(4-{4-[1-(2-Chloro-phenyl)-ethoxycarbonylamino]-3-methyl-isoxazol-5-yl}-benzyl)-phenyl]-acetic acid] | < 300
8 | Cc1noc(-c2ccc(-c3ccc(CC(=O)O)cc3)cc2)c1NC(=O)OC(C)Cc1ccccc1 (centres unmarked) [Compound 1-29, {4′-[3-Methyl-4-(1-methyl-2-phenyl-ethoxycarbonylamino)-isoxazol-5-yl]-biphenyl-4-yl}-acetic acid] | 300 to 1000
9 | Cc1noc(-c2cccc(-c3ccc4c(ccn4CC(=O)O)c3)c2)c1NC(=O)OC(C)c1ccccc1Cl (centres unmarked) [Compound 1-40, [5-(3-{4-[1-(2-Chloro-phenyl)-ethoxycarbonylamino]-3-methyl-isoxazol-5-yl}-phenyl)-indol-1-yl]-acetic acid] | > 50000
10 | CCOC(=O)Cc1ccc(-c2ccc(-c3onc(C)c3NC(=O)OC(C)c3ccccc3F)cn2)cc1 (centres unmarked) [Compound 1-47] | 300 to 1000
11 | Cc1noc(-c2ccc(-c3ccccc3C(=O)O)cc2)c1NC(=O)OC(C)c1ccccc1Cl (centres unmarked) [Compound 1-52, 4′-{4-[1-(2-Chloro-phenyl)-ethoxycarbonylamino]-3-methyl-isoxazol-5-yl}-biphenyl-2-carboxylic acid] | 1000 to 50000
12 | Cc1noc(-c2ccc(-c3cncc(C(=O)O)c3)cc2)c1NC(=O)OC(C)c1ccccc1Cl (centres unmarked) [Compound 1-55, 5-(4-{4-[1-(2-Chloro-phenyl)-ethoxycarbonylamino]-3-methyl-isoxazol-5-yl}-phenyl)-nicotinic acid] | < 300
13 | CCOC(=O)C(C)c1ccc(-c2ccc(-c3onc(C)c3NC(=O)OC(C)c3ccccc3Cl)cc2)cc1 (centres unmarked) [Compound 1-70, 2-(4′-{4-[1-(2-Chloro-phenyl)-ethoxycarbonylamino]-3-methyl-isoxazol-5-yl}-biphenyl-4-yl)-propionic acid ethyl ester] | < 300
14 | Cc1noc(-c2ccc(-c3ccc(C(C)(C)C(=O)O)cc3)cc2)c1NC(=O)OC(C)c1ccccc1Cl (centres unmarked) [Compound 1-72, 2-(4′-{4-[1-(2-Chloro-phenyl)-ethoxycarbonylamino]-3-methyl-isoxazol-5-yl}-biphenyl-4-yl)-2-methyl-propionic acid] | < 300
15 | Cc1noc(-c2ccc(-c3ccc(CC(=O)O)cc3)cn2)c1NC(=O)OC(C)c1ccccc1Cl (centres unmarked) [Compound 1-73] | < 300
16 | Cc1noc(-c2ccc(-c3ccc(CCCC(=O)O)cc3)cc2)c1NC(=O)OC(C)c1ccccc1Cl (centres unmarked) [Compound 1-75, 4-(4′-{4-[1-(2-Chloro-phenyl)-ethoxycarbonylamino]-3-methyl-isoxazol-5-yl}-biphenyl-4-yl)-butyric acid] | < 300
17 | Cc1noc(-c2ccc(Cc3cc(CC(=O)O)ccc3F)cc2)c1NC(=O)O[C@H](C)c1ccccc1F [Compound 1-82, [4-Fluoro-3-(4-{4-[(R)-1-(2-fluoro-phenyl)-ethoxycarbonylamino]-3-methyl-isoxazol-5-yl}-benzyl)-phenyl]-acetic acid] | 300 to 1000
18 | CCOC(=O)Cc1ccc(Oc2ccc(-c3onc(C)c3NC(=O)O[C@H](C)c3ccccc3F)cc2)cc1 [Compound 1-83, [4-(4-{4-[(R)-1-(2-Fluoro-phenyl)-ethoxycarbonylamino]-3-methyl-isoxazol-5-yl}-phenoxy)-phenyl]-acetic acid ethyl ester] | 300 to 1000
19 | Cc1noc(-c2ccc(-c3ccc(CC(=O)O)cc3)cc2)c1NC(=O)OC(C)c1c(Cl)cccc1Cl (centres unmarked) [Compound 1-101, (4′-{4-[1-(2,6-Dichloro-phenyl)-ethoxycarbonylamino]-3-methyl-isoxazol-5-yl}-biphenyl-4-yl)-acetic acid] | 1000 to 50000
20 | Cc1noc(-c2ccc(OCc3ccc(C(=O)O)cc3)cc2)c1NC(=O)O[C@H](C)c1ccccc1F [Compound 1-104, 4-(4-{4-[(R)-1-(2-Fluoro-phenyl)-ethoxycarbonylamino]-3-methyl-isoxazol-5-yl}-phenoxymethyl)-benzoic acid] | 1000 to 50000

Second part, the molecule after the results:

Row | IC50 [nM] | SMILES
21 | 300 to 1000 | Cc1noc(-c2cccc(-c3ccccc3C(=O)O)c2)c1NC(=O)OC(C)c1ccccc1Cl (centres unmarked) [Compound 1-32, 3′-{4-[1-(2-Chloro-phenyl)-ethoxycarbonylamino]-3-methyl-isoxazol-5-yl}-biphenyl-2-carboxylic acid]
22 | 300 to 1000 | Cc1noc(-c2cccc(-c3ccc(C(=O)O)nc3)c2)c1NC(=O)OC(C)c1ccccc1Cl (centres unmarked) [Compound 1-34, 5-(3-{4-[1-(2-Chloro-phenyl)-ethoxycarbonylamino]-3-methyl-isoxazol-5-yl}-phenyl)-pyridine-2-carboxylic acid]
23 | 300 to 1000 | Cc1noc(-c2cccc(-c3cc(C(=O)O)ccn3)c2)c1NC(=O)OC(C)c1ccccc1Cl (centres unmarked) [Compound 1-35, 2-(3-{4-[1-(2-Chloro-phenyl)-ethoxycarbonylamino]-3-methyl-isoxazol-5-yl}-phenyl)-isonicotinic acid]
24 | 300 to 1000 | Cc1noc(-c2cccc(-c3cccc(C(=O)O)n3)c2)c1NC(=O)OC(C)c1ccccc1Cl (centres unmarked) [Compound 1-36, 6-(3-{4-[1-(2-Chloro-phenyl)-ethoxycarbonylamino]-3-methyl-isoxazol-5-yl}-phenyl)-pyridine-2-carboxylic acid]
25 | 1000 to 50000 | Cc1noc(-c2cccc(-c3cncc(C(=O)O)c3)c2)c1NC(=O)OC(C)c1ccccc1Cl (centres unmarked) [Compound 1-37, 5-(3-{4-[1-(2-Chloro-phenyl)-ethoxycarbonylamino]-3-methyl-isoxazol-5-yl}-phenyl)-nicotinic acid]
26 | 1000 to 50000 | COc1ncc(CC(=O)O)cc1-c1cccc(-c2onc(C)c2NC(=O)OC(C)c2ccccc2Cl)c1 (centres unmarked) [Compound 1-38, [5-(3-{4-[1-(2-Chloro-phenyl)-ethoxycarbonylamino]-3-methyl-isoxazol-5-yl}-phenyl)-6-methoxy-pyridin-3-yl]acetic acid]
27 | 1000 to 50000 | Cc1noc(-c2cccc(-c3ccc(CC(=O)O)cc3)c2)c1NC(=O)OC(C)c1ccccc1Cl (centres unmarked) [Compound 1-39, (3′-{4-[1-(2-Chloro-phenyl)-ethoxycarbonylamino]-3-methyl-isoxazol-5-yl}-biphenyl-4-yl)-acetic acid]
28 | 1000 to 50000 | Cc1noc(-c2cccc(-c3cncc(CC(=O)O)c3)c2)c1NC(=O)OC(C)c1ccccc1Cl (centres unmarked) [Compound 1-41, [5-(3-{4-[1-(2-Chloro-phenyl)-ethoxycarbonylamino]-3-methyl-isoxazol-5-yl}-phenyl)-pyridin-3-yl]acetic acid]
29 | 1000 to 50000 | Cc1noc(-c2cccc(-c3cc(CC(=O)O)ccc3F)c2)c1NC(=O)OC(C)c1ccccc1Cl (centres unmarked) [Compound 1-42, (3′-{4-[1-(2-Chloro-phenyl)-ethoxycarbonylamino]-3-methyl-isoxazol-5-yl}-6-fluoro-biphenyl-3-yl)-acetic acid]
30 | 1000 to 50000 | Cc1noc(-c2cccc(-c3ccc(F)c(CC(=O)O)c3)c2)c1NC(=O)OC(C)c1ccccc1Cl (centres unmarked) [Compound 1-43, (3′-{4-[1-(2-Chloro-phenyl)-ethoxycarbonylamino]-3-methyl-isoxazol-5-yl}-4-fluoro-biphenyl-3-yl)-acetic acid]
31 | 1000 to 50000 | Cc1noc(-c2cccc(-c3ccccc3CC(=O)O)c2)c1NC(=O)OC(C)c1ccccc1Cl (centres unmarked) [Compound 1-44, (3′-{4-[1-(2-Chloro-phenyl)-ethoxycarbonylamino]-3-methyl-isoxazol-5-yl}-biphenyl-2-yl)-acetic acid]
32 | < 300 | Cc1noc(-c2cccc(C3CCC(C(=O)O)CC3)c2)c1NC(=O)OC(C)c1ccccc1Cl (centres unmarked) [Compound 1-46, 4-(3-{4-[1-(2-Chloro-phenyl)-ethoxycarbonylamino]-3-methyl-isoxazol-5-yl}-phenyl)-cyclohexanecarboxylic acid]

From patent publication US20110301142A1, “ANTAGONISTS OF LYSOPHOSPHATIDIC ACID RECEPTORS” (priority 2008, published 2011)
